The results in this text go back to patent publication US20060241177A1, “Novel compounds, pharmaceutical compositions containing same, and methods of use for same” (priority 2002, published 2006).

Series [1] relates to MCF-7 human breast cancer cells. The series is described as follows: XTT cytotoxicity assay. In kind it is cell-based. To be noted: MCF7, MCF-7 cells, 72 hours. The procedure:
The XTT assay is a non-radioactive alternative for the [^51Cr] release cytotoxicity assay. XTT is a tetrazolium salt that is reduced to a formazan dye only by metabolically active, viable cells. The reduction of XTT is measured spectrophotometrically as OD490-OD650.
To measure the cytotoxicity of specific compounds against cancer cells, 9×10^3 MCF-7 human breast cancer cells, obtained from the American Type Culture Collection are plated per well in 96 well plates in DMEM medium with 10% fetal bovine serum, msulin, penicillin, and streptomycin. Following overnight culture at 37° C. and 5% CO2, the compounds to be tested, dissolved in DMSO, are added to the wells in 1 μl volume at the following concentrations: 80, 40, 20, 10, 5, 2.5, 1.25, and 0.625 μg/ml in triplicate. Additional concentrations are tested if required. 1 μl of DMSO is added to triplicate wells are the vehicle control. C75 is run at 40, 20, […], and 5 μg/ml in triplicate as positive controls.
After 72 hours of incubation, cells are incubated for 4 hours with the XTT reagent as per manufacturer's instructions (Cell Proliferation Kit II (XTT) Roche). Plates are read at OD490 and OD650 on a Molecular Devices SpectraMax Plus Spectrophotometer. Three wells containing the All reagent without cells serve as the plate blank. XTT data are reported as OD490-OD650. Averages and standard error of the mean are computed using SOFTmax Pro software ([…]).
The IC50 for the compounds is defined as the concentration of drug leading to a 50% reduction in OD490-OD650 compared to controls. The OD490-OD650 are computed by the SOFTmax PRO software Molecular Devices) for each compound concentration. IC50 is calculated by linear regression, plotting the FAS activity as percent of control versus drug concentrations. Linear regression, best-fit line, r^2, and 95% confidence intervals are determined using Prism Version 3.0 (Graph Pad Software).

Series [2] can be described thus: Weight loss screen in Balb/C mice. Type of series: in vivo. The procedure:
Weight Loss Screen for Novel FAS Inhibitors
Balb/C mice (Jackson Labs) are utilized for the initial weight loss screening. Animals are housed in temperature and 12 hour day/night cycle rooms and fed mouse chow and water ad lib. Three mice are utilized for each compound tested with vehicle controls in triplicate per experiment. For the experiments, mice are housed separately for each compound tested three mice to a cage. Compounds are diluted in DMSO at 10 mg/ml when given at a dose of 30 mg/kg, and 30 mg/ml when given at a dose of 60 mg/kg, and mice are injected intraperitoneally with 60 mg/kg in approximately 100 μl of DMSO or with vehicle alone. Mice are observed and weighed daily; average weights and standard errors are computed with Excel (Microsoft). The experiment continues until treated animals reach their pretreatment weights. Select compounds are tested in animals housed in metabolic cages.
Dosing of animals are identical to the screening experiments with three animals to a single metabolic cage. Animal weights, water and food consumption, and urine and feces production are measured daily. Three lean Balb/C mice (Harlan) maintained on mouse chow, are treated with compounds at doses indicated on day 0 or with vehicle (DMSO) control of equal volume. Compound 6 was solubilized in 40 μl DMSO while Compound 8 was solubilized in 60 μl DMSO. All were injected intraperitoneally. Weights were measured on days indicated. Error bars represent standard error of the mean.

Where [3] appears, read: 30 mg/kg i.p., day 1, three Balb/C mice per compound.

Values after ≈ are worked out from the molar mass of the structure shown.

As a reminder, the IC50 is the midpoint of a concentration-inhibition curve. Higher therefore signals lower potency. With `CCCCCCCCC1OC(=O)[C@@H](C)[C@H]1C(=O)O` (stereo partly shown), the half-inhibitory concentration (IC50) in series [1] is > 80 µg/mL. Consider `CCCCCCCCC1OC(=O)[C@H](C)[C@H]1C(=O)O` (stereo partly shown), for which the IC50 in series [1] is > 80 µg/mL. For the molecule `C=CCNC(=O)C1=C(C)C(=O)O[C@H]1CCCCCCCC`, the IC50 in series [1] turned out to be 27.8 ± 3.8 µg/mL (≈ 94.7 µM). Consider `C=CCNC(=O)[C@@H]1C(=C)C(=O)O[C@H]1CCCCCCCC` (racemic), for which, in series [1], the 50% inhibitory concentration (IC50) turned out to be 0.81 ± 0.01 µg/mL (≈ 2.76 µM). The “Deaths in weight loss screen” value in series [2] (60 mg/kg i.p., day 3, three Balb/C mice per compound) is 3 of 3 dead.

In turn, `C=CCNC(=O)[C@H]1[C@H](CCCCCCCC)OC(=O)[C@H]1C` (racemic) had a concentration for half-maximal inhibition (IC50) in series [1] of 59.4 ± 6.4 µg/mL (≈ 201 µM). As for `C=CCNC(=O)[C@H]1[C@H](CCCCCCCC)OC(=O)[C@@H]1C` (racemic), the IC50 in series [1] is 20.8 ± 7.1 µg/mL (≈ 70.4 µM). On to `C=CCNC(=O)[C@@H]1C(=C)C(=O)O[C@H]1CCCCCC` (racemic), for which the half-inhibitory concentration (IC50) in series [1] worked out at 1.6 ± 0.1 µg/mL (≈ 6.03 µM). The “Deaths in weight loss screen” value in series [2] (setting [3]) is listed as 1 of 3 dead. For `C=CCNC(=O)[C@@H]1C(=C)C(=O)O[C@H]1CCCC` (racemic), inhibition in series [1] was half-maximal at 2.4 ± 0.2 µg/mL (≈ 10.1 µM) (IC50). In series [2] (30 mg/kg i.p., day 2, three Balb/C mice per compound), the “Deaths in weight loss screen” value was 3 of 3 dead.

Turning to `C=C1C(=O)O[C@@H](CCCCCCCC)[C@@H]1C(=O)NCCO` (racemic), the IC50 in series [1] worked out at 4.1 ± 2.2 µg/mL (≈ 13.8 µM). In series [1], `C=C1C(=O)O[C@@H](CCCCCCCC)[C@@H]1C(=O)NCC(=O)OC` (racemic) returned an IC50 of 2 ± 0.5 µg/mL (≈ 6.15 µM). Besides, in series [2] (setting [3]), the “Deaths in weight loss screen” value is given as 3 of 3 dead. Take `C=C1C(=O)O[C@@H](CCCCCCCC)[C@@H]1C(=O)NCC(=O)O` (racemic): the IC50 in series [1] is > 80 µg/mL. In addition, the “Deaths in weight loss screen” value in series [2] (30 mg/kg i.p., day 6, three Balb/C mice per compound) is on record as 1 death.
